From patent US10174013B2, “Benzimidazole derivatives as kinase inhibitors” (SELVITA S.A., priority 2012, dated 2019)

Key:
Pim-1 = Pim-1 (Homo sapiens (Human), UniProt P11309); test: ADP-Glo Kinase Assay, Pim-1; assay type: biochemical; details: 1 μM compound
Procedure, shortened: (§1)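 Buffer was MOPS 5 mM (pH 7.5) with MgCl2, EDTA and DTT; ATP set at apparent Km per kinase. Compounds were diluted in assay buffer to 1000 nM. Kinase-generated ADP was converted to luciferase signal and normalised to percent inhibition.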

Pim-2 = Pim-2 (Homo sapiens (Human), UniProt Q9P1W9); test: ADP-Glo Kinase Assay, Pim-2; assay type: biochemical; details: 1 μM compound
Procedure, shortened: as §1

Pim-3 = Pim-3 (Homo sapiens (Human), UniProt Q86V86); test: ADP-Glo Kinase Assay, Pim-3; assay type: biochemical; details: 1 μM compound
Procedure, shortened: as §1

FLT3wt = FLT3wt (Homo sapiens (Human), UniProt P36888); test: ADP-Glo Kinase Assay, Flt3 wt; assay type: biochemical; details: 1 μM compound
Procedure, shortened: as §1

FLT3-ITD = test: ADP-Glo Kinase Assay, Flt3 ITD; assay type: biochemical, Human; details: 1 μM compound
Procedure: Compounds of the present invention were tested for their inhibitory activity against Pim-1, Pim-2, Pim-3, Flt3 wt, Flt3 ITD, CDK2/E and DYRK1. The testing of the compounds was carried out using the ADP-Glo™ Kinase Assay from Promega Corporation (Madison, Wis., USA).
The ADP-Glo™ Kinase Assay is a luminescent ADP detection assay to measure kinase activity by quantifying the amount of ADP produced during a kinase reaction. The kinase assay is performed in kinase assay buffer (5 mM MOPS, pH 7.5, 5 mM MgCl2, 0.4 mM EDTA, 1.5 mM DTT). Test samples initially dissolved in DMSO at 10 mM were diluted with the assay buffer to 1000 nM. A 30 μL volume/well of a mixture of substrates containing ATP (final ATP concentration in each kinase assay was equal to its apparent ATP Km).
The assay was performed in two steps: first, after the kinase reaction, an equal volume of ADP-Glo™ Reagent was added to terminate the kinase reaction and deplete the remaining ATP. Second, the Kinase Detection Reagent was added to simultaneously convert ADP to ATP and allowed the newly synthesized ATP to be measured using a luciferase/luciferin reaction. The luminescent signal generated was proportional to the ADP concentration produced and was correlated with kinase activity. A microplate spectrophotometer (Synergy 2 multi-mode microplate reader [BioTek]) was used for detecting the luminescence. The data was normalized and the percent of inhibition was obtained according to the following equation: […]

CDK2/E = CDK2/E (Homo sapiens (Human), UniProt P24941); test: ADP-Glo Kinase Assay, CDK2/E; assay type: biochemical; details: 1 μM compound
Procedure, shortened: as §1

DYRK1 = DYRK1 (Homo sapiens (Human), UniProt Q13627); test: ADP-Glo Kinase Assay, DYRK1; assay type: biochemical; details: 1 μM compound
Procedure, shortened: as §1

MV4-11 cells = test: Growth inhibition, MTS assay, MV4-11; assay type: cell-based, Human; details: 72 hours, MTS cell viability; read-out: MV4-11 ED50
HEL92 cells = test: Growth inhibition, MTS assay, HEL92; assay type: cell-based, Human; details: 72 hours, MTS cell viability; read-out: HEL92 ED50
HepG2 cells = test: Growth inhibition, MTS assay, HepG2; assay type: cell-based, Human; details: 72 hours, MTS cell viability; read-out: HepG2 ED50
Jeko-1 cells = test: Growth inhibition, MTS assay, Jeko-1; assay type: cell-based, Human; details: 72 hours, MTS cell viability; read-out: Jeko-1 ED50
SW-480 cells = test: Growth inhibition, MTS assay, SW-480; assay type: cell-based, Human; details: 72 hours, MTS cell viability; read-out: SW-480 ED50
MOLM16 cells = test: Growth inhibition, MTS assay, MOLM16; assay type: cell-based, Human; details: 72 hours, MTS cell viability; read-out: MOLM 16 ED50
MOLM13 cells = test: Growth inhibition, MTS assay, MOLM13; assay type: cell-based, Human; details: 72 hours, MTS cell viability; read-out: MOLM 13 ED50
Source text: (§2) The following cell lines, were obtained and used in tests as outlined below: • Human myelomonocytic, biphenotypic leukemia MV4-11 cells (harboring a Flt3-ITD mutation); • Human Acute Myeloid Leukemia MOLM16 cells; • Human Acute Myeloid Leukemia MOLM13 cells (harboring a Flt3-ITD mutation); • Human Myeloid Leukemia KG-1 cells; • Human erythroleukemia HEL92 cells; • Human mantle cell lymphoma Jeko-1 cells; • Human hepatocellular carcinoma HepG2 cells; and • Human colon adenocarcinoma SW-480 cells.
(§3) The assays were carried out according to the following protocol, which is described as an example for the MV4-11 cells:
(§4) Ten thousand MV4-11 cells were inoculated into each well of a 96-well microplate (manufactured by Corning Corp.) using Iscove's MDM medium (culture medium) containing 10% fetal calf serum (FCS). The same day, a dimethyl sulfoxide (DMSO) solution of each test compound prepared in a concentration of 10 mmol/L was further diluted with DMSO to the desired concentrations (0.1, 0.5, 1, 2.5, 5 and 10 micromol/L), and the diluted solution was added to each well. The individual wells were further cultured in 5% carbon dioxide at 37° C. for 72 hours. […] Briefly, 10 μl MTS (3-(4,5-Dimethyl-2-thiazolyl)-5-(carboxymethoxyphenyl)-2-(4-sulfophenyl)-2H-tetrazolium was added to each well, and culturing was performed in 5% carbon dioxide at 37° C. for 2 hours. After this incubation and using a microplate spectrophotometer (Synergy 2 multi-mode microplate reader (BioTek)), the absorbance of each well was measured at 490 nm. The value for cells not incubated with a test compound was designated as 100%. By comparing these values with the absorbance difference obtained at the well in which each test compound was added, the cell viability (% viability) after treatment with the test compound was calculated.

KG-1 cells = test: Growth inhibition, MTS assay, KG-1; assay type: cell-based, Human; details: 72 hours, MTS cell viability
Source text: as §2, §3, §4

MV4-11 xenograft = MV4-11 xenograft in immunocompromised mice; assay type: in vivo; details: MV4-11 xenograft, oral
Procedure, shortened: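 MV4-11 leukemic cells engrafted in NOD/scid or SCID/beige mice; oral dosing started at tumor volume approx. 50-200 mm^3, daily QD or BID for 2-3 weeks. Efficacy read as tumor growth inhibition (TGI), tolerability as body weight change (ΔBW).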

FLT3wt, sequence (P36888 27-993): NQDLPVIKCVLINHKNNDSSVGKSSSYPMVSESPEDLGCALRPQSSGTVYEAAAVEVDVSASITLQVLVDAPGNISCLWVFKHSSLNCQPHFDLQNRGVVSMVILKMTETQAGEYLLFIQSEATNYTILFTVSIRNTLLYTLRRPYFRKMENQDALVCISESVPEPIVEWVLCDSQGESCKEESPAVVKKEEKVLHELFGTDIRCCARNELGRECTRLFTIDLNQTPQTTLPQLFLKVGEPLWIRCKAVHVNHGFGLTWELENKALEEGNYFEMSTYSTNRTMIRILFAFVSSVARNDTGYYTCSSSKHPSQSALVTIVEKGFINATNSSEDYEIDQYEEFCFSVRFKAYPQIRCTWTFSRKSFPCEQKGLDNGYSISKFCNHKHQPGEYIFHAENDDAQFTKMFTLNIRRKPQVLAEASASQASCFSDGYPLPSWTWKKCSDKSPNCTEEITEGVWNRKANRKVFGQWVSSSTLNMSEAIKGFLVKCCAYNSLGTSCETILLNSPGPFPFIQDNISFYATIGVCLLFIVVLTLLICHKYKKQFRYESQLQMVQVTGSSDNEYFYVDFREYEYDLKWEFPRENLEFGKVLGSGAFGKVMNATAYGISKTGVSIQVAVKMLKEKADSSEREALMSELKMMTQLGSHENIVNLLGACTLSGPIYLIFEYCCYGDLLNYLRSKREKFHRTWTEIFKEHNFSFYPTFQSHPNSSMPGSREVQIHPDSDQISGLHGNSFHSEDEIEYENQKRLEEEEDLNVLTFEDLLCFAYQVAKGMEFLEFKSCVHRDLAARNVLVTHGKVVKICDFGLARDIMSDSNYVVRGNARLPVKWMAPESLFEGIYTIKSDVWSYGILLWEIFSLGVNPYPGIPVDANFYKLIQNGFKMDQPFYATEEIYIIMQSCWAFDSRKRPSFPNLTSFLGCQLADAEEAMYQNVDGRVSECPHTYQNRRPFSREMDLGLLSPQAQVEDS
Pim-1, sequence (P11309 whole entry): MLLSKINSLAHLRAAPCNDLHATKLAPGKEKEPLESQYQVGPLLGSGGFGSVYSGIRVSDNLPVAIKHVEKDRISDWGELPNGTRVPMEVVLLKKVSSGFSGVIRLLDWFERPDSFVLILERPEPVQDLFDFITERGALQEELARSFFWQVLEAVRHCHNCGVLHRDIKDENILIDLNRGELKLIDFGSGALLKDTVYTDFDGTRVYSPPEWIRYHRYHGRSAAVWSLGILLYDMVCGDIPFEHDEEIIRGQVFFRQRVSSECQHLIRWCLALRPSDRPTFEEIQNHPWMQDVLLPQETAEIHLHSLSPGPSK
Pim-2, sequence (Q9P1W9 whole entry): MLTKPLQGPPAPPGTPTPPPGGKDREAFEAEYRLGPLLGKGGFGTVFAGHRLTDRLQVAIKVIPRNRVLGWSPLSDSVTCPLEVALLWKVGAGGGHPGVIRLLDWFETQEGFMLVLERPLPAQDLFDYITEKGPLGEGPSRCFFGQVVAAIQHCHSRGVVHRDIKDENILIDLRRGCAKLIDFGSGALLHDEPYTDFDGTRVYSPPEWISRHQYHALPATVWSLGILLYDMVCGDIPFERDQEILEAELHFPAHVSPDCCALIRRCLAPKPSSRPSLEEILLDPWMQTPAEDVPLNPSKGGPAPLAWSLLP

## CCn1c(N2CCC[C@H](N)C2)nc2c([N+](=O)[O-])c(Br)c(Br)cc21 [Example 1AH]
Pim-1
  Pim-1 % INH (1 μM): >95%
Pim-2
  Pim-2 % INH (1 μM): 55%
Pim-3
  Pim-3 % INH (1 μM): >95%
FLT3wt
  Flt3wt % INH (1 μM): 9%
FLT3-ITD
  Flt3ITD % INH (1 μM): 29%
CDK2/E
  CDK2/E % INH (1 μM): 6%
DYRK1
  DYRK1A % INH (1 μM): 39%
MV4-11 cells
  IC50: 0.6 µM
HEL92 cells
  IC50: 6.0 µM
HepG2 cells
  IC50: 2.2 µM
Jeko-1 cells
  IC50: 1.9 µM
SW-480 cells
  IC50: 7.0 µM
MOLM16 cells
  IC50: 0.2 µM
MOLM13 cells
  IC50: 1.8 µM
KG-1 cells
  KG-1 ED50: 0.65 µM
MV4-11 xenograft; 150 mg/Kg QD
  TGI (tumor growth inhibition): 74%
  ΔBW (body weight change): 0.6%
MV4-11 xenograft; doses as in Table 3
  TGI (tumor growth inhibition): more than 70%
